In publication PMC12112332, “Characterization of Novel and Known Activators of Cannabinoid Receptor Subtype 2 Reveals Mixed Pharmacology That Differentiates Mycophenolate Mofetil and GW-842,166X from MDA7” (International Journal of Molecular Sciences, 2025):
Like-named read-outs stand apart in the source and are kept apart here.

Columns and labels:
[1] = biological target: T1, rCB1 (Rattus norvegicus, UniProt P20272); assay: Thallium flux assay in HEK/GIRK cells expressing rCB1; format: cell-based; settings: for rCB1 GIRK (−) 2-AG % Max ± SEM / rCB1 GIRK (+) 2-AG % Max ± SEM: % of maximal 2-AG response
T1 construct: expressed in transfected cells; host or cells: HEK293 cells stably co-expressing GIRK channels
Experimental: The cell lines used in this manuscript were generated in-house. Their preparation is described in detail in Qi et al.. Cells were used for 10 passages for experiments and day-to-day signals in both the CB2 and CB1 lines were stable across this passage number. Human Embryonic Kidney (HEK) 293 cells stably expressing rCB2 and the G protein Gqi9 were maintained in Dulbecco’s modified Eagle media (DMEM) containing 10% FBS, 1× antibiotic/antimycotic, 20 mM HEPES, 1 mM sodium pyruvate, 2 mM L-glutamine, 1× non-essential amino acids, 700 µg/mL G418 sulfate, and 0.6 µg/mL puromycin. HEK cells stably expressing rCB2 or rCB1 and the G protein inwardly rectifying potassium channel (GIRK) were maintained in DMEM/F12 containing 10% FBS, 1× antibiotic/antimycotic, 20 mM HEPES, 1 mM sodium pyruvate, 2 mM L-glutamine, 1× non-essential amino acids, 700 µg/mL G418 sulfate, and 0.6 µg/mL puromycin. Cells were monitored by periodic PCR detection using the LookOut Mycoplasma PCR Detection Kit (Sigma-Aldrich, St Louis, MO, USA) to eliminate potential mycoplasma infection. Reagents were obtained from Invitrogen (Waltham, MA, USA) unless otherwise noted.
Thallium flux assays were performed as previously described in Niswender et al., 2008 [31]. HEK/GIRK cells stably expressing rCB1 or rCB2 (15,000 cells/20 µL/well) were seeded in 384-well, poly-D-lysine coated assay plates (Corning BioCoat®) (Corning Inc., Corning, NY, USA) and incubated overnight at 37 °C in the presence of 5% CO2. The next day, the medium was removed and replaced with 20 μL of 1.2 µM thallium-sensitive dye Thallos-AM (ION biosciences, San Marcos, TX, USA), prepared as a DMSO stock solution mixed in a 1:1 ratio with 10% (w/v) pluronic acid F-127, and diluted in assay buffer (Hank’s balanced salt solution, 20 mM HEPES, pH 7.4). Following 1 h at room temperature, the dye solution was removed and replaced with 20 µL assay buffer. For screening of the FDA-Approved Drug Collection, 10 mM DMSO stocks of library compounds were transferred to daughter plates using an Echo acoustic plate reformatter (Labcyte, Sunnyvale, CA, USA) and diluted in assay buffer to a 2× final concentration. For concentration–response curve experiments, compounds were serially diluted 1:3 into 10-point concentration–response curves in DMSO, transferred to daughter plates using the Echo or Bravo Automated Liquid Handling Platform (Agilent Technologies, Santa Clara, CA, USA), and diluted in assay buffer to a 2× final concentration. Thallium flux was measured using the Hamamatsu FDSS/μCELL Kinetic Plate Imager (Bridgewater, NJ, USA). After the establishment of a fluorescence baseline (excitation, 480 ± 20 nm; emission, 540 ± 30 nm), 20 µL (2×) of test compound was added to the cells at 1 s and the response was measured. After 140 s, 10 µL (5×) of an EC20 concentration of agonist (PAM mode) or vehicle (AGO mode) in thallium stimulus buffer (125 mM NaHCO3, 1.8 mM CaSO4, 1 mM MgSO4, 5 mM glucose, 12 mM Tl2SO4, 10 mM HEPES, 0.5% BSA, pH 7.4) was added to the cells, and the response of the cells was measured for an additional 159 s (data were acquired for 300 s total at 0.5 Hz for 140 s and 1 Hz for 160 s). Raw kinetic data were analyzed in a multi-step process: (1) Fluorescence readings for each time point in a well were divided by the fluorescence reading at the initial time point to account for differences in cell number, non-uniform illumination, and dye-loading. (2) The slope value for each kinetic trace was calculated for the time window of 145–155 s, a window occurring directly after the second addition. (3) The average slope was calculated for wells containing vehicle and this value was subtracted from all wells. (4) The vehicle-subtracted slope was normalized to the relevant maximal agonist signal for each assay. […]

[2] = biological target: T2, rat CB2 (Rattus norvegicus, UniProt Q9QZN9); assay: [3H]CP55,940 radioligand competition binding, membranes of HEK/GIRK cells expressing rat CB2; design: expressed in transfected cells; host or cells: HEK293 cells stably co-expressing GIRK1/2 channels; settings: for rCB2 Binding Affinity pKi ± SEM: 0.5 nM [3H]CP55,940, equilibrium; for rCB2 Binding % Max ± SEM: % of specific [3H]CP55,940 binding
T2 sequence (Q9QZN9 1-360): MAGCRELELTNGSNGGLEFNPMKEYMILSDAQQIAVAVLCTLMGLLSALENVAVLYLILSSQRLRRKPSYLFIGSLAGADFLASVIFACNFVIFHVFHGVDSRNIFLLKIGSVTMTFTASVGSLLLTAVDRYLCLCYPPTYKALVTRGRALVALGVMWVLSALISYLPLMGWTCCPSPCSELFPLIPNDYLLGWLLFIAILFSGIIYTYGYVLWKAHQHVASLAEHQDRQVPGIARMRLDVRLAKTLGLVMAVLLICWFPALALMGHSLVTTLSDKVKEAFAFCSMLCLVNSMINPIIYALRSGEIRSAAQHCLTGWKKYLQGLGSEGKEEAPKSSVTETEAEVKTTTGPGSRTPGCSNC
Source text: Agonists that bind to the receptor at the site occupied by the endogenous ligand (2-AG in this case) are considered orthosteric agonists. It is also possible for an agonist to bind and activate a receptor via a site other than the orthosteric site; these ligands are classified as allosteric agonists. To characterize the nature of the agonist activity of mycophenolate mofetil, we tested its ability to bind to the receptor in equilibrium binding assays using membranes harvested from cells expressing rCB2 using the radioligand [^3H]CP55,940 [40, 60]. CP55,940 has an affinity for both CB1 and CB2 receptors in the low nM range and is reported to bind to the site occupied by 2-AG [61].
Competition binding concentration–response curves were obtained in the presence of 0.5 nM [^3H]CP55,940 using membranes harvested from HEK/GIRK cells expressing rCB2. Data represent the mean ± SEM of three independent experiments run in triplicate. Data are plotted as a percentage of specific [^3H]CP55,940 binding. Non-specific binding was determined in the presence of 10 µM CP55,940.
Membranes were made from HEK/GIRK cells stably expressing rat CB2. Radioligand competition binding assays were performed as previously described, with minor modifications. In brief, compounds were serially diluted into assay buffer with 0.1% bovine serum albumin (BSA) and added to each well of a 96-well plate, along with 20 μg/well cell membrane and approximately 500 pM [^3H]-CP55,940 (specific activity = 104 Ci/mmol, PerkinElmer, Waltham, MA, USA). Following a 3-h incubation period on a shaker at room temperature, membrane-bound ligand was separated from free ligand by filtration through glass fiber 96-well filter plates (Unifilter-96, GF/B; PerkinElmer, Waltham, MA, USA). Forty microliters of scintillation fluid were added to each well, and membrane-bound radioactivity was determined by scintillation counting (Microbeta2; Revvity, Waltham, MA, USA). Nonspecific binding was determined using 10 μM of cold CP55,940.

T1 sequence (P20272 whole entry): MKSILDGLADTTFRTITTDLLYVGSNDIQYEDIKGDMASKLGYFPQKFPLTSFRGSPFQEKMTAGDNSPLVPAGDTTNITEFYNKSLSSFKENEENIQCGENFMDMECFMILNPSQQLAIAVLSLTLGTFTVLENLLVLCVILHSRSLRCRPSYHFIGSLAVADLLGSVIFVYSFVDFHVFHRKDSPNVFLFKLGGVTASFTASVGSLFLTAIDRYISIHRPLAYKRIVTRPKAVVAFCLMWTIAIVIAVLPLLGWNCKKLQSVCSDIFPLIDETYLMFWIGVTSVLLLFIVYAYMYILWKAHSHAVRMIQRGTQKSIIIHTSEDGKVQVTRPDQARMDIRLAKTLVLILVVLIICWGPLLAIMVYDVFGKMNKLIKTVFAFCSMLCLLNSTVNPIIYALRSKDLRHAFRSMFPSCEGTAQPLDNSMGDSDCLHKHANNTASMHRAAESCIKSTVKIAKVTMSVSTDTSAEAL

Row | rCB1 GIRK (+) 2-AG pEC50 ± SEM ([1]; presence of EC20 2-AG) | EC50 ([1]; presence of EC20 2-AG, read-out: rCB1 GIRK (+) 2-AG pEC50 ± SEM (converted)) [nM] | EC50 ([2]; 0.5 nM [3H]CP55,940, tested up to 30 µM, read-out: rCB2 Binding pEC50 (incomplete displacement) (converted)) [nM] | Compound | rCB1 GIRK (−) 2-AG pEC50 ± SEM ([1]; absence of 2-AG) | EC50 [2] [nM] | rCB2 Binding Affinity pKi ± SEM [2] | rCB2 Binding % Max ± SEM ([2]; 0.5 nM [3H]CP55,940) [%] | rCB1 GIRK (−) 2-AG % Max ± SEM ([1]; absence of 2-AG) [%] | rCB1 GIRK (+) 2-AG % Max ± SEM ([1]; presence of EC20 2-AG) [%] | EC50 ([1]; rCB1 GIRK EC50 in absence of 2-AG, absence of 2-AG) [nM] | EC50 ([1]; rCB1 GIRK EC50 in presence of 2-AG, presence of EC20 2-AG) [nM] | Ki [2] [nM]
1 |  |  |  | CC1(Cc2ccccc2)COc2cc(C(=O)N3CCCCC3)ccc21 (centres unmarked) [MDA7, 1-[(3-benzyl-3-methyl-2,3-dihydro-1-benzofuran-6-yl)carbonyl]piperidine] |  |  |  | 5.3 ± 1.7 | 50 ± 2 | 48 ± 2 | 477 | 395 | 251
2 | < 5.0 | > 10000 | > 10000 | COc1c(C)c2c(c(O)c1C/C=C(\C)CCC(=O)OCCN1CCOCC1)C(=O)OC2 [Mycophenolate mofetil] | < 5.0 |  | Incomplete | 20 ± 1 | −15 ± 3 | −5.5 ± 1.1 |  |  | 
3 | Inactive |  |  | COc1c(C)c2c(c(O)c1C/C=C(\C)CCC(=O)O)C(=O)OC2 [Mycophenolic acid] |  |  |  |  |  |  |  |  | 

Row | Compound | rCB1 GIRK (+) 2-AG pEC50 ± SEM ([1]; presence of EC20 2-AG) | EC50 ([1]; presence of EC20 2-AG, read-out: rCB1 GIRK (+) 2-AG pEC50 ± SEM (converted)) [nM] | EC50 ([2]; 0.5 nM [3H]CP55,940, tested up to 30 µM, read-out: rCB2 Binding pEC50 (incomplete displacement) (converted)) [nM] | rCB1 GIRK (−) 2-AG pEC50 ± SEM ([1]; absence of 2-AG) | EC50 [2] [nM] | rCB2 Binding Affinity pKi ± SEM [2] | rCB2 Binding % Max ± SEM ([2]; 0.5 nM [3H]CP55,940) [%] | rCB1 GIRK (−) 2-AG % Max ± SEM ([1]; absence of 2-AG) [%] | rCB1 GIRK (+) 2-AG % Max ± SEM ([1]; presence of EC20 2-AG) [%] | EC50 ([1]; rCB1 GIRK EC50 in absence of 2-AG, absence of 2-AG) [nM] | EC50 ([1]; rCB1 GIRK EC50 in presence of 2-AG, presence of EC20 2-AG) [nM] | Ki [2] [nM]
4 | O=C(NCC1CCOCC1)c1cnc(Nc2ccc(Cl)cc2Cl)nc1C(F)(F)F [GW-842,166X, 2-(2,4-dichloroanilino)-N-(oxan-4-ylmethyl)-4-(trifluoromethyl)pyrimidine-5-carboxamide] | Inactive |  |  | Inactive | > 10000 | Incomplete | 22 ± 2 |  |  |  |  | 
